According to paper PMC6982223, “Design, Synthesis and Molecular Modeling Study of Conjugates of ADP and Morpholino Nucleosides as A Novel Class of Inhibitors of PARP-1, PARP-2 and PARP-3” (International Journal of Molecular Sciences, 2019):

What was measured:
Format in all cases: biochemical
[1] = target: T1, Human recombinant poly(ADP-ribose)-polymerase 1 (Homo sapiens, UniProt P09874); test: autopoly(ADP-ribosyl)ation of PARP-1, [32P]NAD+ incorporation; conditions: autopoly(ADP-ribosyl)ation, 0.3 mM NAD+
T1 construct: made in house
Text: (§1) The oligonucleotides were purchased from Biosset (Novosibirsk, Russia). The reagents, solvents and the basic components of buffers were purchased from Sigma (St. Louis, MO, USA), Acros organics (Waltham, MA, USA) or Promega (Madison, WI, USA). γ–[^32P]-ATP and α–[^32P]-ATP (with specific activities of 5000 and 3000 Ci/mmol, respectively) were from the Laboratory of Biotechnology (Institute of Chemical Biology and Fundamental Medicine, Novosibirsk, Russia). T4 polynucleotide kinase was from Biosan (Novosibirsk, Russia). SUMO fusion expression vector pETHSUL (GenBank: EF205333.1) and pSUPER vector coding for the catalytic domain of the S. cerevisiae SUMO hydrolase dtUD1 were kindly provided by Dr. P. Loll (Drexel University, Philadelphia, USA). His6 and Strep-II double-tagged dtUD1 hydrolase was expressed and purified as described in ref. [81]. Human recombinant poly(ADP-ribose)-polymerase 1 (EC 2.4.2.30) was prepared as described previously. Murine recombinant poly(ADP-ribose)-polymerase 2 (EC 2.4.2.30) was purified as described previously. Plasmid encoding human PARP-3 was kindly provided by Dr. A. Ishchenko (Gustave Roussy, Université Paris-Saclay, France). Poly(ADP-ribose)-polymerase 3 (EC 2.4.2.30) was purified according to [6].
(§2) The reaction of autopoly(ADP-ribosyl)ation was carried out as follows: for PARP-1 50 mM tris-HCl, pH 8.0, 20 mM MgCl2, 150 mM NaCl, and 7 mM β-mercaptoethanol, activated DNA 2 OE/mL, 0.3 mM [^32P] NAD+ at 37 °C. The reaction was initiated by adding PARP-1 to 200 nM and the reaction mixtures were incubated for 1.5 min. For PARP-2: 50 mM tris-HCl, pH 8.0, 3 mM spermin, 150 mM NaCl, and 7 mM β-mercaptoethanol, activated DNA 2 OE/mL, 0.6 mM [^32P] NAD+ at 37 °C. The reaction was initiated by adding PARP-2 to 800 nM and the reaction mixtures were incubated for 5 min. The reaction was stopped by placing 10 μL aliquots onto Whatman 1 paper filters soaked with 5 % TCA. The filters were washed with 5% TCA for four times and dried in air after the removal of TCA with 90% ethanol. The incorporation of radioactivity into the product was calculated with a Tri-Carb 2800 scintillation counter (Perkin Elmer, Waltham, MA, USA) according to the Cherenkov method or using Typhoon FLA 9500 scanner (GE Healthcare, Chicago, IL, USA). To determine the IC50 value of inhibitors (concentration of the compound required reducing the enzyme activity by 50%), we studied the activity of the enzyme at different concentrations of inhibitors. Measurements were done in at least two independent experiments. IC50 values were calculated using the Origin Pro 8.0 software by nonlinear regression analysis.

[2] = target: T2, Murine recombinant poly(ADP-ribose)-polymerase 2 (Mus musculus, UniProt O88554); test: autopoly(ADP-ribosyl)ation of PARP-2, [32P]NAD+ incorporation; conditions: autopoly(ADP-ribosyl)ation, 0.6 mM NAD+
T2 construct: made in house
Text: as §1, §2

PARP-1 = target: T3, PARP-1 (Homo sapiens, UniProt P09874); test: kinetics of PARP-1 inhibition (Km, Vmax, type of inhibition) by fluorescence anisotropy; conditions: for type of inhibition: PARP-1 catalyzed reaction, versus NAD+
T3 construct: made in house
Method: The type of inhibition was determined based on at what stage of the reaction the inhibitor binds to the enzyme (before or after the substrate binding) and where it binds (at the substrate binding site or elsewhere). There are four types of inhibition: competitive, whereby an inhibitor binding occurs at the substrate-binding site; noncompetitive, where an inhibitor binds at the allosteric center; mixed with inhibitor binding at both the active and allosteric center; or uncompetitive under an inhibitor binding to the enzyme-substrate complex. Determination of the type of inhibition is necessary to confirm the computer simulation data and to plan further modifications of the inhibitor structure. The type of inhibition can be determined from the plots of the reaction parameters, such as maximum rates, Vmax and the apparent Michaelis constant, Km, values, versus inhibitor concentration. […] Noncompetitive inhibition leads to a decrease of Vmax and retention of the Km values. Mixed inhibition is a superposition of the first two, and is characterized by a decrease in the reaction rate and an increase in Km values. In the case of uncompetitive inhibition, both […].
To determine the type of inhibition of the studied compounds, the activity of PARP-1 was measured at presence of three different inhibitor concentrations at nine NAD+ substrate concentrations by the fluorescence anisotropy technique. Based on the obtained data, dependence graphs of the initial reaction rate on the substrate concentration were constructed, and reaction parameters such as maximum reaction rate (Vmax) and apparent Michaelis constant (Km) values were found (Tables S3 and S4, Supporting). To determine the type of inhibition, we plotted the dependence graph of Vmax and Km values on the inhibitor concentration using OriginPro 8.6.0 software. (Figure 3). […] Therefore, the results of modeling of the binding type of these compounds in the enzyme’s active center are legitimate.
The determination of the kinetic parameters of inhibition Km and Vmax was carried out as described. In all experiments, the points on the experimental curves represent the average of a minimum three independent experiments.

PARP-3 = target: T4, PARP-3 (Homo sapiens, UniProt Q9Y6F1); test: auto(ADP-ribosyl)ation of PARP-3
T4 construct: made in house
T4 sequence (Q9Y6F1 1-533): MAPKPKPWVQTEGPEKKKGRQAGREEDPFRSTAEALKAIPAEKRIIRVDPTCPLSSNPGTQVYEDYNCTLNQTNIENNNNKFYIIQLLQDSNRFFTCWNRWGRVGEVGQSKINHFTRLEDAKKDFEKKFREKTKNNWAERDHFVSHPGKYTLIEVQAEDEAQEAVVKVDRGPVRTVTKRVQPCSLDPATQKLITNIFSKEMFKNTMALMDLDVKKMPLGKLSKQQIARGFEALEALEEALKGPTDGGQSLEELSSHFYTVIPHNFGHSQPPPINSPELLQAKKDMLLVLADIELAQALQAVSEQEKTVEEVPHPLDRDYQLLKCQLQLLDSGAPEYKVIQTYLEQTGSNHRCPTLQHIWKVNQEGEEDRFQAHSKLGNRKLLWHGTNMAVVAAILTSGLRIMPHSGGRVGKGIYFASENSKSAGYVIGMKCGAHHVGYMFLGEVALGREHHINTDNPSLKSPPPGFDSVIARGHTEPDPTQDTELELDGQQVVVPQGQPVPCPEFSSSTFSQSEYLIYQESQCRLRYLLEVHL
Text: as §1
The reactions were performed in the presence of 2 mM MgCl2 as a cofactor in HDB buffer. The reaction mixtures (final volume 10 μL) contained 0.1 μM DNA substrate, 0.5 μM PARP-3, 5 μM [^32P]-NAD+ and 0, 35 or 95 μM NAD+ in the absence or presence of various concentrations of the inhibitor, which are indicated on the figures. The reaction mixtures were incubated for 20 min at 37 °С then terminated by adding the 5x gel loading Laemmli sample buffer and heating at 85 °C for 10 min. The mixtures were resolved on a 10% SDS-PAG as described in [84] The gels were dried and subjected to autoradiography and/or phosphorimaging for quantitation using the Typhoon imaging system from GE Healthcare Life Sciences. Quantitative processing was carried out using OriginPro7.5, Microcal Software, USA. […]

T3 sequence (P09874 whole entry): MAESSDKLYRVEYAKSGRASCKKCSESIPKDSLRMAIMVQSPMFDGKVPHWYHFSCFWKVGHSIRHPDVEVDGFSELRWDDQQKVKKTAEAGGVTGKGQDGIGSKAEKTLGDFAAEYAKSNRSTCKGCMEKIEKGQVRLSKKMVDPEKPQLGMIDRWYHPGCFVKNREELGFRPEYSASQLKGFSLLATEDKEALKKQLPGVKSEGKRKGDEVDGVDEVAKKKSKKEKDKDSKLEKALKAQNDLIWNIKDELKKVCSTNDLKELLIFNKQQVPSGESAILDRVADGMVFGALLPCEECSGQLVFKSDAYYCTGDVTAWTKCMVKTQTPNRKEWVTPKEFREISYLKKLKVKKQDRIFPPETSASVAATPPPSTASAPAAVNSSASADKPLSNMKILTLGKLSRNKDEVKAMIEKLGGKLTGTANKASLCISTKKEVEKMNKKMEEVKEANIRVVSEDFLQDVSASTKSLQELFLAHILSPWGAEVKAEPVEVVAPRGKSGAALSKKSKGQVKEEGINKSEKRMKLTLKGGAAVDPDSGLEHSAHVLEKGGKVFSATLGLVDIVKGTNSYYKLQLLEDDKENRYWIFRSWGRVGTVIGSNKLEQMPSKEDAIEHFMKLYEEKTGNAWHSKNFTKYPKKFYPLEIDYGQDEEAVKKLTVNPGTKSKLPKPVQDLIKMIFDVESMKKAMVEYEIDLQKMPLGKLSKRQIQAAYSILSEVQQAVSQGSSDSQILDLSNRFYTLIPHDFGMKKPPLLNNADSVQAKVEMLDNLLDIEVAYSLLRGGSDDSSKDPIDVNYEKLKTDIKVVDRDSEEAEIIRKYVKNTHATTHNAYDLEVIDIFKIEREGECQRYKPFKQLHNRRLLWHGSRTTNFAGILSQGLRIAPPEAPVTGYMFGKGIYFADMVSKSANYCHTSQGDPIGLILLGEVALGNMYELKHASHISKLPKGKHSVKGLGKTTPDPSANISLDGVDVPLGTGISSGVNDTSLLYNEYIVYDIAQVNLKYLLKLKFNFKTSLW
T1 sequence (P09874 whole entry): as above
T2 sequence (O88554 whole entry): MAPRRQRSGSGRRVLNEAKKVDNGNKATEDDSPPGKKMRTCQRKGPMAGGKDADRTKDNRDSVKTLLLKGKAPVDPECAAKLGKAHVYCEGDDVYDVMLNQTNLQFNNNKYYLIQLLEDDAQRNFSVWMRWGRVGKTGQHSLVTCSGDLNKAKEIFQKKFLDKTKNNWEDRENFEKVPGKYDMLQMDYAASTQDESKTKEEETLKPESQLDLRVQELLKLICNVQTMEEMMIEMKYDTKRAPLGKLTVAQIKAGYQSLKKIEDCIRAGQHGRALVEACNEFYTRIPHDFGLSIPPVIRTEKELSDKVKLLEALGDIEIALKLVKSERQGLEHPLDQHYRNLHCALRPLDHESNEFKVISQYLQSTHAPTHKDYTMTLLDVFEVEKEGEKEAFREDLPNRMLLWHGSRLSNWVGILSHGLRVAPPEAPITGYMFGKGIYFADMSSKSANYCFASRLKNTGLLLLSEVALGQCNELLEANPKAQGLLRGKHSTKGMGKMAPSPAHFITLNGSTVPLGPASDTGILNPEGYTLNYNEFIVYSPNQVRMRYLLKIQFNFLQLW

| IC50 [1] | IC50 [2] | type of inhibition (PARP-1) | Vmax (PARP-1; inhibitor concentration 50 μМ) | Vmax (PARP-1; inhibitor concentration 100 μМ) | Vmax (PARP-1; inhibitor concentration 500 μМ) | activity against PARP-3 (PARP-3) | inhibitory activity in the auto(ADP-ribosyl)ation reaction of PARP-3 (PARP-3; 1 mM concentration) | Vmax (PARP-1; inhibitor concentration 300 μМ) | Vmax (PARP-1; inhibitor concentration 600 μМ) | Vmax (PARP-1; inhibitor concentration 900 μМ) | Compound |
| --- | --- | --- | --- | --- | --- | --- | --- | --- | --- | --- | --- |
| 126 µM | 110 µM | competitive inhibitors | 0.19 RFU/sec | 0.18 RFU/sec | 0.17 RFU/sec | low activity | significant inhibitory activity |  |  |  | Nc1ncnc2c1ncn2C1OC(COP(=O)(O)OP(=O)(O)NCC2CNCC(n3cc(I)c(=O)[nH]c3=O)O2)C(O)C1O (stereo not drawn) [Compound 10IU] |
| 353 ± 4 µM | 63 ± 10 µM | mixed inhibitor |  |  |  | lack of activity |  | 0.090 RFU/sec | 0.068 RFU/sec | 0.062 RFU/sec | Nc1ncnc2c1ncn2C1CNCC(CNP(=O)(O)OP(=O)(O)OCC2OC(n3cnc4c(N)ncnc43)C(O)C2O)O1 (stereo not drawn) [Compound 10A] |
